These results are taken from patent US12721881B2, “Endostatin peptides for the treatment of tumors, fibrosis and acute lung injury” (MUSC Foundation for Research Development, priority 2019, dated 2026).

Assay [1] has as its system normal lung fibroblasts. Put plainly: Fibronectin in supernatants of TGFbeta-treated normal lung fibroblasts. In kind it is cell-based, human. Particulars: 10 μg/ml to 80 μg/ml, 72 hours. The protocol: Normal lung fibroblasts were treated with TGFbeta without or with increasing concentrations for 96-87. Supernatants were assessed for fibronectin levels after 72 hours of treatment. 96-87 had no effect on TGFbeta-induced FN production, even with increasing concentration from 10 μg/ml to 80 μg/ml (FIG. 18).

The test system of assay [2] is systemic sclerosis pulmonary fibrosis lung tissues. Briefly: MMP-1 induction in systemic sclerosis pulmonary fibrosis lung tissues in organ culture. The following applies: 10 μg/ml, TGFbeta, 120 hrs. In kind it is cell-based, human. The protocol:
Systemic sclerosis pulmonary fibrosis lung tissues were divided into equal size cores. Lung tissues in organ culture were treated with different peptide fragments derived from endostatin at a final concentration of 10 μg/ml in the presence of TGFbeta for 120 hrs. The induction of matrix metalloprotease (MMP)-1 (also known as collagenase) in media conditioned by the lung tissues was examined as a measure of the ability of the peptide to reduce fibrosis and promote extracellular matrix degradation.

The subject of assay [3] is normal lung fibroblasts. Briefly: Extracellular matrix proteins in TGFbeta-treated normal lung fibroblasts, immunoblotting. In kind it is cell-based, human. Particulars: 10 μg/ml peptide. The procedure: Normal lung fibroblasts were treated with vehicle as control (VC) or TGFbeta (T) in the presence or absence of 10 μg/ml of various peptide fragments. The extracellular matrix proteins, Collagen 1A1 and fibronectin (FN) were assessed using immunoblotting.
For orientation: In western blotting, separated proteins are transferred to a membrane and probed.

Assay [4] relates to fibroblasts from lungs of patients with SSc. Put plainly: Gene expression in fibroblasts from lungs of patients with systemic sclerosis (SSc). In kind it is cell-based, human. Particulars: SSc lung fibroblasts. The procedure:
[…] RNA was extracted and levels of alpha smooth muscle actin (SMA) measured by qRT-PCR.
SSc fibroblasts were treated with 10 μg/ml BioE4-03 for 72 hours. RNA was extracted and used to measure SMA and Collagen 1A2.

The subject of assay [5] is fibroblasts from lung tissues of normal donors. Briefly: Alpha smooth muscle actin qRT-PCR in TGFbeta-treated fibroblasts from lung tissues of normal donors. In kind it is cell-based, human. Particulars: 48 hours. The protocol: Fibroblasts were treated with TGFbeta with or without peptide Bio96-17 for 48 hours. RNA was extracted and levels of alpha smooth muscle actin (SMA) measured by qRT-PCR.
(In general: Real-time PCR tracks product formation cycle by cycle.)

The subject of assay [6] is lung tissues of normal donors. Briefly: Lung tissues of normal donors in organ culture after induction of fibrosis with TGFbeta. In kind it is cell-based, human. Particulars: normal donor lung tissue; for hydroxyproline levels: fibrosis induced with TGFbeta.
For a further assay, the system named is tumors. Put plainly: Histologic analysis of tumors (H & E, Masson Trichrome). Particulars: for collagen bundles in the tumors (Masson Trichrome stain): compared to tumors from vehicle treated mice. In kind it is in vivo, mouse. The protocol:
Histological analysis of tumors treated with vehicle alone, or with BioE4-03 or Bio96 peptides was performed.

Assay [7] has as its system mc-38 colon adenocarcinoma tumor cells. Briefly: mc-38 colon adenocarcinoma tumor growth in mice, oral gavage. Particulars: 100 μg/mouse oral gavage twice/week; for mean rate of increase in the tumor volume at day 21: PBS control 151.1 mm^3 per day; for mean tumor volume at day 21 (model-based estimate): PBS control 1492.1 mm^3. In kind it is in vivo. The procedure: (§1) For each of the experiments, descriptive statistics (means and standard deviations) for tumor volumes were calculated over time for each experimental group (i.e. Experiment 1: Control vs. BioE4 (FIG. 1); Experiment 2: PBS, Bio96, and BioE4-03 (FIG. 5)). Since tumor growth tends to be curvilinear, general linear mixed models (GLMMs) were created to estimate treatment-specific growth curves over time and to make comparisons between the peptide treatments and control. Separate GLMMs were constructed for each experiment, and each GLMM included random effects for each mouse, to control for the fact that the repeated volume measurements within a given mouse were correlated with one another. Tumor volume served as the dependent variable in each model, while time (in days), […], treatment x time, and treatment x time^2 were included as independent variables. Using these models, the estimated mean tumor volumes at specific selected time points and the mean rate of change in the tumor volumes at specific selected time points were compared. If a mouse's tumor grew too large, it was sacrificed; however, all tumor volumes measured prior to sacrifice were included in the modeling process. SAS v9.4 (SAS Institute, Cary, NC) was used for all analyses. All hypothesis tests were 2-sided, and p-values <0.05 were considered statistically significant.
sMIC tolerant transgenic (MB481 strain) mice (Liu et al, Perturbation of NK cell peripheral homeostasis accelerates prostate carcinoma metastasis. J. Clin. Invest. 123:4410, 2013) were injected with 1×10^5 mc-38 colon adenocarcinoma tumor cells via subcutaneous injection When tumor size reached approximately 75 mm^3, treatment was started. start treatment at four group. Bio96 100 μg/mouse, BioE4-03 100 μg/mouse, were given via oral gavage in a volume of 100 μl. PBS (100 μl) was given as a vehicle control. Peptides and vehicle were administered twice/week. Tumor volume was measured 3 times per week.
Direct comparisons were made between the PBS control and Bio96 and between PBS and BioE4-03 with respect to the mean tumor volumes at Day 21 and the mean rate of change in the tumor volumes at Day 21 (FIG. 5 through FIG. 7).

In assay [8] the test system is fibroblasts from lungs of patients with IPF. Briefly: Gene expression in fibroblasts from lungs of patients with idiopathic pulmonary fibrosis (IPF). In kind it is cell-based, human. The following applies: IPF lung fibroblasts.
For assay [9], the system named is lung tissues of patients with IPF. Briefly: Hydroxyproline in lung tissues of patients with IPF in organ culture. Particulars: IPF lung tissue, organ culture 72 hours. In kind it is cell-based, human.
For assay [10], the system named is A549 cells (human lung adenocarcinoma cells). Put plainly: Gene expression in A549 cells by real-time PCR. In kind it is cell-based. The following applies: A549, 10 μg/ml, 48 hours. The protocol: (§2) The expression of several genes implicated in tumorigenesis, angiogenesis and cancer stem cell renewal was measured in a variety of tumor types and organs.
Tumor cells were treated with 10 μg/ml BioE4-03 for 48 hours. RNA was extracted and analyzed by real-time PCR. N=6-8 independent experiments. Statistical analysis was done using the paired t-test.

Assay [11] has as its system lung tissues of patients with SSc. Put plainly: Hydroxyproline in lung tissues of patients with SSc in organ culture. In kind it is cell-based, human. Particulars: SSc lung tissue, organ culture 72 hours.
The test system of assay [12] is HCT116T cells (human colon carcinoma cells). Put plainly: Gene expression in HCT116T cells by real-time PCR. In kind it is cell-based. The following applies: 10 μg/ml, 48 hours. The protocol: as §2
Tumor cells were treated with 10 μg/ml BioE4-03 for 48 hours. RNA was extracted and analyzed by real-time PCR. N=3-4 independent experiments (except for uPAR where n=2).

Assay [13] has as its system human lung adenocarcinoma cells (A549). Briefly: IL-6 mRNA by qPCR in A549 cells. In kind it is cell-based. The following applies: A549, 48 hours, relative to vehicle controls. The procedure: (§3) IL-6 mRNA levels were measured via qPCR in human lung adenocarcinoma cells (A549) treated for 48 hours with BioE4-03 peptide. […] For comparison, a parallel experiment was done using non-biotinylated E4-03. […] Additionally, IL-6 protein levels in the supernatant of A549 cells were measured by ELISA after 72 hours of treatment with E4-03 peptide.

The subject of another assay is skin tissues from donors. Briefly: Gene expression in donor skin tissues with TGFbeta-induced fibrosis. The following applies: skin tissue. In kind it is cell-based, human. The source says: BioE4-03 further reduces Col1A1 and fibronectin (FN) gene expression in skin tissues from donors in which fibrosis was induced with TGFbeta (FIG. 25).
Assay [14] relates to TRAMP C-2 mouse prostate tumor cells. The following applies: C57BL6 mice, 50 μg/dose oral gavage twice per week, day 15, vs water vehicle. The procedure: as §1
In assay [15] the test system is human lung adenocarcinoma cells (A549). Put plainly: IL-6 protein by ELISA in supernatant of A549 cells. In kind it is cell-based. The following applies: A549, 72 hours, relative to vehicle controls. The procedure: as §3
Background: An ELISA detects its analyte on a solid surface through an enzyme-linked reagent.

Where no end group is shown, it is not given here. The star is where a group is joined. Biotin = O=C1N[C@H]2[C@H](CS[C@H]2CCCCC(=O)*)N1

Take “ATGQASSLLGGRLLGQ (C-terminal endostatin-derived peptide 96-87)”: the “TGFbeta-induced FN production (supernatants)” value in the assay on normal lung fibroblasts [1] is given as “no effect”.

In the case of “ATGQASSLLGGRLLGQSAASCHHA (C-terminal endostatin-derived peptide 96-17)”, the “MMP-1 production in media conditioned by the lung tissues” value (“MMP-1 production in media conditioned” for short) in assay [2] is “induced MMP-1 production”. In the assay on normal lung fibroblasts [3], the “Col1A1 levels induced by TGFbeta (immunoblotting)” value is on record as “effective at reducing” and the “FN levels induced by TGFbeta (immunoblotting)” value is given as “effective at reducing”.

For “Bio96-17: SEQ ID NO:4 being biotinylated at its N-terminus (Biotin-ATGQASSLLGGRLLGQSAASCHHA; not fully specified (C-terminus))”, in [4] (Bio96-17 experiment), the Coll1A2 levels entry is reported as “significant reduction” and the SMA levels result is on record as “significant reduction”. Besides, the “TGFbeta-induced SMA levels (qRT-PCR)” value in [5] is on record as “significant reduction”. Also, in [6] (TGFbeta, cultured 120 hours), the “secreted Col1A1 protein levels” value is “significant reduction”. Also, in assay [6], the hydroxyproline levels result is on record as “significant reductions”.

Take “Biotin-NH2-ATGQASSLL-CONH2 (Biotin-ATGQASSLL-NH2; SMILES CC(C)C[C@H](NC(=O)[C@H](CC(C)C)NC(=O)[C@H](CO)NC(=O)[C@H](CO)NC(=O)[C@H](C)NC(=O)[C@H](CCC(N)=O)NC(=O)CNC(=O)[C@@H](NC(=O)[C@H](C)NC(=O)CCCC[C@@H]1SC[C@@H]2NC(=O)N[C@@H]21)[C@@H](C)O)C(N)=O) [Bio96]”: in the assay with tumors, the “collagen bundles in the tumors (Masson Trichrome stain)” value is “thinner collagen bundles”. Besides, the “tumor cell arrangement (H & E)” value in the assay with tumors (tumors from treated mice) is listed as “looser cell arrangement”. Besides, in assay [7], the “mean rate of increase in the tumor volume at day 21” value was 90.6 mm^3 per day and the “mean tumor volume at day 21 (model-based estimate)” value is given as 871.4 mm^3.

As for “Biotin-NH2-SYCETWRTEAPSATGQASSLLGGRLLGQSAASCHHA-CONH2 [BioE4-03]”, in assay [8], the Coll1A2 levels result is “trend towards decrease” and the SMA levels entry is given as “trend towards decrease”. In assay [4] (10 μg/ml, 72 hours), the Coll1A2 levels result is “significant reduction” and the SMA levels entry is on record as “significant reduction”. Besides, in the assay on tumors, the “collagen bundles in the tumors (Masson Trichrome stain)” value is reported as “thinner collagen bundles”. In the assay with tumors (tumors from treated mice), the “tumor cell arrangement (H & E)” value is “looser cell arrangement” and the “tumor necrosis (H & E)” value is reported as “notable necrosis”. In assay [9], the hydroxyproline levels entry is recorded as “significant reduction”. In [10], the “Expression of IL-6” value is “significantly reduced”, the “Expression of LOX” value is listed as “significantly reduced”, the “Expression of PAI-I” value is listed as “significantly reduced” and the “Expression of PDGF-A” value is given as “significantly reduced”. Also, in assay [10], the “Expression of VEGF-A” value is “significantly reduced”, the “Expression of uPA” value is “significantly reduced” and the “Expression of uPAR” value is “significantly reduced”. Further, the hydroxyproline levels result in [11] was “significant reduction”. Also, in [7], the “mean rate of increase in the tumor volume at day 21” value came out at 76.0 mm^3 per day and the “mean tumor volume at day 21 (model-based estimate)” value is on record as 767.7 mm^3. In assay [12], the “Expression of IL-6” value is on record as “significantly reduced”, the “Expression of PAI-I” value was “significantly reduced”, the “Expression of PDGF-A” value was “significantly reduced” and the “Expression of VEGF-A” value is on record as “significantly reduced”. For the same substance, the “Expression of uPA” value in assay [12] was “significantly reduced”. Besides, the “Expression of uPAR” value in [12] (n=2) is listed as “significantly reduced”. In addition, the hydroxyproline levels entry in assay [6] is “significant reductions”. In addition, the “expression of IL-6 mRNA” value in assay [13] was “significantly reduced”. Further, in the assay with skin tissues from donors, the Col1A1 gene expression entry is recorded as “reduces” and the “fibronectin (FN) gene expression” value was “reduces”.

As for “Biotin-NH2-SYCETWRTEAPSATGQASSLLGGRLLGQSAASCHHAYIVLCIENSFMT-CONH2 [BioE4]”, in [14], the “mean rate of increase in the tumor volume on day 15, Control vs. peptide group” value is reported as “significantly (p=0.02) greater in the Control group” and the “mean tumor volume at day 15 (model-based estimate), Control vs. peptide group” value is given as “significantly (p=0.0001) greater in the Control group”.

With “SYCETWRTEAPSATGQASSLL (C-terminal endostatin-derived peptide 91-96)”, the “MMP-1 production in media conditioned” value in assay [2] is listed as “no effect”.

Consider “SYCETWRTEAPSATGQASSLLGGRLLGQ (C-terminal endostatin-derived peptide 91-97) [91-87]”, for which, in assay [2], the “MMP-1 production in media conditioned” value is recorded as “no effect”.

Regarding “SYCETWRTEAPSATGQASSLLGGRLLGQSAASCHHA (C-terminal endostatin-derived peptide E4-03)”, in [2], the “MMP-1 production in media conditioned” value is “induced MMP-1 production”. In [15], the “IL-6 protein levels in the supernatant” value was “significantly reduced”. In the assay with normal lung fibroblasts [3], the “Col1A1 levels induced by TGFbeta (immunoblotting)” value is given as “effective at reducing” and the “FN levels induced by TGFbeta (immunoblotting)” value was “effective at reducing”. Further, the “expression of IL-6 mRNA” value in [13] is “reduced”.
